Tested on: marine bacteria (26 strains)
Assay: Disk inhibition assay
Type: cell-based, marine bacteria isolated from Singapore fouling communities
Conditions: for zone of inhibition at 2 µg/disc: 2 μg per disc; for zone of inhibition at 10 µg/disc: 10 μg per disc; for zone of inhibition at 5 µg/disc: 5 μg per disc; for zone of inhibition at 30 µg/disc: 30 μg per disc
Method: Preparation of Drugs onto Disks for Assay
The non-antibiotic pharmaceuticals of Table 1 were prepared in the following way. A tablet with a known amount of active ingredient (as stated in the product information) was ground in a mortar and pestle and suspended in sterile deionized water to a concentration of 2 mg ml^−1. These samples were sonicated for at least 1 min. […] The two halves of the capsule were separated and the powder released straight into a bottle and suitable amount of water added to make a concentration of 2 mg ml^−1.
As a comparison to the pharmaceuticals, to determine the susceptibility of the bacterial isolates to conventional antibiotics, commercially available antibiotic discs were used. Antibiotic discs (Oxoid® CT series) containing Ampicillin [Amp] (2 and 10 μg), Erythromycin [Ery] (5 and 15 μg), Streptomycin [Str] (10 and 25 μg) and Tetracycline [Tet] (5 and 30 μg) were placed on lawns of the bacterial strains inoculated as described below.
Sterile swabs dipped into the cultures were used to inoculate Marine Agar plates with a bacterial lawn by smearing the culture over the surface. After inoculating the plates, discs with antibiotics, pharmaceuticals or control blanks were placed on each plate. Each concentration of antibiotic or pharmaceutical was tested with three replicates on three separate occasions. After the disks were placed on the agar surface, plates were incubated overnight in the dark at 30° C. After incubation, plates were examined for zones of inhibition or clearing around control and treated disks. The diameter of any zone of clearing or inhibition was measured using Vernier calipers.
The assay was repeated three times with three replicates for each concentration used, each time.

CC1(C)S[C@@H]2[C@H](NC(=O)[C@H](N)c3ccccc3)C(=O)N2[C@H]1C(=O)O [Amp, ampicillin]
6 to 9 mm: zone of inhibition at 2 µg/disc (strain 7 (Vibrio)) | zone of inhibition at 2 µg/disc (strain 16 (Pseudoalteromonas)) | zone of inhibition at 2 µg/disc (strain 28)
> 40 mm: zone of inhibition at 2 µg/disc (strain 4 (Bacillus)) | zone of inhibition at 10 µg/disc (strain 4 (Bacillus)) | zone of inhibition at 10 µg/disc (strain 10 (Halobacillus)) | zone of inhibition at 10 µg/disc (strain 24)
10 to 19 mm: zone of inhibition at 2 µg/disc (strain 1 (Rhodovulum)) | zone of inhibition at 10 µg/disc (strain 2 (Erythrobacter)) | zone of inhibition at 10 µg/disc (strain 7 (Vibrio)) | zone of inhibition at 2 µg/disc (strain 9 (Bacillus)) | zone of inhibition at 2 µg/disc (strain 13 (Bacillus)) | zone of inhibition at 10 µg/disc (strain 13 (Bacillus)) | zone of inhibition at 2 µg/disc (strain 14 (Vibrio)) | zone of inhibition at 10 µg/disc (strain 16 (Pseudoalteromonas)) | zone of inhibition at 2 µg/disc (strain 22) | zone of inhibition at 10 µg/disc (strain 22) | zone of inhibition at 2 µg/disc (strain 26) | zone of inhibition at 10 µg/disc (strain 26) | zone of inhibition at 10 µg/disc (strain 28)
30 to 39 mm: zone of inhibition at 10 µg/disc (strain 8 (Bacillus)) | zone of inhibition at 10 µg/disc (strain 9 (Bacillus)) | zone of inhibition at 2 µg/disc (strain 10 (Halobacillus)) | zone of inhibition at 10 µg/disc (strain 11 (Pseudomonas)) | zone of inhibition at 2 µg/disc (strain 24) | zone of inhibition at 10 µg/disc (strain 27) | zone of inhibition at 2 µg/disc (strain 29) | zone of inhibition at 10 µg/disc (strain 29) | zone of inhibition at 2 µg/disc (strain 30)
< 6 mm: zone of inhibition at 2 µg/disc (strain 2 (Erythrobacter)) | zone of inhibition at 2 µg/disc (strain 3 (Erythrobacter)) | zone of inhibition at 10 µg/disc (strain 3 (Erythrobacter)) | zone of inhibition at 2 µg/disc (strain 6 (Vibrio)) | zone of inhibition at 10 µg/disc (strain 6 (Vibrio)) | zone of inhibition at 2 µg/disc (strain 12 (Gordonia)) | zone of inhibition at 10 µg/disc (strain 12 (Gordonia)) | zone of inhibition at 2 µg/disc (strain 17 (Gordonia)) | zone of inhibition at 10 µg/disc (strain 17 (Gordonia)) | zone of inhibition at 2 µg/disc (strain 20) | zone of inhibition at 2 µg/disc (strain 21) | zone of inhibition at 10 µg/disc (strain 21)
20 to 29 mm: zone of inhibition at 10 µg/disc (strain 1 (Rhodovulum)) | zone of inhibition at 2 µg/disc (strain 8 (Bacillus)) | zone of inhibition at 2 µg/disc (strain 11 (Pseudomonas)) | zone of inhibition at 10 µg/disc (strain 14 (Vibrio)) | zone of inhibition at 2 µg/disc (strain 18 (Microbacterium)) | zone of inhibition at 10 µg/disc (strain 18 (Microbacterium)) | zone of inhibition at 2 µg/disc (strain 19 (Erythrobacter)) | zone of inhibition at 10 µg/disc (strain 19 (Erythrobacter)) | zone of inhibition at 10 µg/disc (strain 20) | zone of inhibition at 2 µg/disc (strain 27) | zone of inhibition at 10 µg/disc (strain 30)

CN(C)[C@@H]1C(O)=C(C(N)=O)C(=O)[C@@]2(O)C(O)=C3C(=O)c4c(O)cccc4[C@@](C)(O)[C@H]3C[C@@H]12 [Tet, tetracycline]
20 to 29 mm: zone of inhibition at 30 µg/disc (strain 29)
< 6 mm: zone of inhibition at 5 µg/disc (strain 1 (Rhodovulum)) | zone of inhibition at 30 µg/disc (strain 1 (Rhodovulum)) | zone of inhibition at 5 µg/disc (strain 2 (Erythrobacter)) | zone of inhibition at 30 µg/disc (strain 2 (Erythrobacter)) | zone of inhibition at 5 µg/disc (strain 3 (Erythrobacter)) | zone of inhibition at 30 µg/disc (strain 3 (Erythrobacter)) | zone of inhibition at 5 µg/disc (strain 6 (Vibrio)) | zone of inhibition at 5 µg/disc (strain 7 (Vibrio)) | zone of inhibition at 5 µg/disc (strain 11 (Pseudomonas)) | zone of inhibition at 30 µg/disc (strain 11 (Pseudomonas)) | zone of inhibition at 5 µg/disc (strain 12 (Gordonia)) | zone of inhibition at 5 µg/disc (strain 14 (Vibrio)) | zone of inhibition at 5 µg/disc (strain 16 (Pseudoalteromonas)) | zone of inhibition at 30 µg/disc (strain 16 (Pseudoalteromonas)) | zone of inhibition at 5 µg/disc (strain 17 (Gordonia)) | zone of inhibition at 30 µg/disc (strain 17 (Gordonia)) | zone of inhibition at 5 µg/disc (strain 18 (Microbacterium)) | zone of inhibition at 5 µg/disc (strain 19 (Erythrobacter)) | zone of inhibition at 30 µg/disc (strain 19 (Erythrobacter)) | zone of inhibition at 5 µg/disc (strain 20) | zone of inhibition at 5 µg/disc (strain 21) | zone of inhibition at 5 µg/disc (strain 24) | zone of inhibition at 30 µg/disc (strain 24) | zone of inhibition at 5 µg/disc (strain 26) | zone of inhibition at 30 µg/disc (strain 26) | zone of inhibition at 5 µg/disc (strain 27) | zone of inhibition at 5 µg/disc (strain 28)
10 to 19 mm: zone of inhibition at 5 µg/disc (strain 4 (Bacillus)) | zone of inhibition at 30 µg/disc (strain 4 (Bacillus)) | zone of inhibition at 30 µg/disc (strain 8 (Bacillus)) | zone of inhibition at 5 µg/disc (strain 9 (Bacillus)) | zone of inhibition at 30 µg/disc (strain 9 (Bacillus)) | zone of inhibition at 30 µg/disc (strain 10 (Halobacillus)) | zone of inhibition at 30 µg/disc (strain 13 (Bacillus)) | zone of inhibition at 30 µg/disc (strain 14 (Vibrio)) | zone of inhibition at 30 µg/disc (strain 20) | zone of inhibition at 30 µg/disc (strain 21) | zone of inhibition at 30 µg/disc (strain 22) | zone of inhibition at 30 µg/disc (strain 27) | zone of inhibition at 30 µg/disc (strain 28) | zone of inhibition at 5 µg/disc (strain 29) | zone of inhibition at 5 µg/disc (strain 30) | zone of inhibition at 30 µg/disc (strain 30)
30 to 39 mm: zone of inhibition at 5 µg/disc (strain 10 (Halobacillus)) | zone of inhibition at 30 µg/disc (strain 12 (Gordonia))
6 to 9 mm: zone of inhibition at 30 µg/disc (strain 6 (Vibrio)) | zone of inhibition at 30 µg/disc (strain 7 (Vibrio)) | zone of inhibition at 5 µg/disc (strain 8 (Bacillus)) | zone of inhibition at 5 µg/disc (strain 13 (Bacillus)) | zone of inhibition at 30 µg/disc (strain 18 (Microbacterium)) | zone of inhibition at 5 µg/disc (strain 22)

Source: patent US20060110456A1, “Method for biocidal and/or biostatic treatment and compositions therefor” (NATIONAL UNIVERSITY OF SINGAPORE, priority 2004, published 2006)
